Reference: patent US11993599B2, “Therapeutic compounds” (Genentech, Inc., priority 2021, dated 2024)

Columns and labels:
BRG1 = molecular target: T1, BRG1 (Homo sapiens, UniProt P51532); assay: Immunofluorescence assay for BRG1 degradation in SW1573 cells; assay type: cell-based; conditions: 20 hours incubation; for DC50: immunofluorescence mean nuclear signal, read-out: BRG1 IF Degradation IC50; for Dmax: SW1573, 20 h, normalized to a known degrader control, read-out: BRG1 IF Degradation Sinf (%)
T1 construct: either BRM primary antibody (Cell signaling Cat #11966) or BRG primary antibody (Abcam, ab 110641); endogenous in cells; host or cells: SW1573
Summary of the method: (§1)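 Imaging-based readout in SW1573: 20 h dosing, formaldehyde fixation, antibody staining for either remodeler, nuclear intensity per cell quantified. Values normalized to control degrader; floating-maximum fit.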

BRM = BRM (Homo sapiens, UniProt P51531); assay: Immunofluorescence assay for BRM degradation in SW1573 cells; assay type: cell-based; design: treated overnight at 4° C. with either BRM primary antibody (Cell signaling Cat #11966) or BRG primary antibody; endogenous in cells; host or cells: SW1573; conditions: 20 hours incubation; for DC50: immunofluorescence mean nuclear signal, read-out: BRM IF Degradation IC50; for BRM IF Degradation Sinf (%): normalized to a known degrader control
Summary of the method: as §1

T1 sequence (P51532 whole entry): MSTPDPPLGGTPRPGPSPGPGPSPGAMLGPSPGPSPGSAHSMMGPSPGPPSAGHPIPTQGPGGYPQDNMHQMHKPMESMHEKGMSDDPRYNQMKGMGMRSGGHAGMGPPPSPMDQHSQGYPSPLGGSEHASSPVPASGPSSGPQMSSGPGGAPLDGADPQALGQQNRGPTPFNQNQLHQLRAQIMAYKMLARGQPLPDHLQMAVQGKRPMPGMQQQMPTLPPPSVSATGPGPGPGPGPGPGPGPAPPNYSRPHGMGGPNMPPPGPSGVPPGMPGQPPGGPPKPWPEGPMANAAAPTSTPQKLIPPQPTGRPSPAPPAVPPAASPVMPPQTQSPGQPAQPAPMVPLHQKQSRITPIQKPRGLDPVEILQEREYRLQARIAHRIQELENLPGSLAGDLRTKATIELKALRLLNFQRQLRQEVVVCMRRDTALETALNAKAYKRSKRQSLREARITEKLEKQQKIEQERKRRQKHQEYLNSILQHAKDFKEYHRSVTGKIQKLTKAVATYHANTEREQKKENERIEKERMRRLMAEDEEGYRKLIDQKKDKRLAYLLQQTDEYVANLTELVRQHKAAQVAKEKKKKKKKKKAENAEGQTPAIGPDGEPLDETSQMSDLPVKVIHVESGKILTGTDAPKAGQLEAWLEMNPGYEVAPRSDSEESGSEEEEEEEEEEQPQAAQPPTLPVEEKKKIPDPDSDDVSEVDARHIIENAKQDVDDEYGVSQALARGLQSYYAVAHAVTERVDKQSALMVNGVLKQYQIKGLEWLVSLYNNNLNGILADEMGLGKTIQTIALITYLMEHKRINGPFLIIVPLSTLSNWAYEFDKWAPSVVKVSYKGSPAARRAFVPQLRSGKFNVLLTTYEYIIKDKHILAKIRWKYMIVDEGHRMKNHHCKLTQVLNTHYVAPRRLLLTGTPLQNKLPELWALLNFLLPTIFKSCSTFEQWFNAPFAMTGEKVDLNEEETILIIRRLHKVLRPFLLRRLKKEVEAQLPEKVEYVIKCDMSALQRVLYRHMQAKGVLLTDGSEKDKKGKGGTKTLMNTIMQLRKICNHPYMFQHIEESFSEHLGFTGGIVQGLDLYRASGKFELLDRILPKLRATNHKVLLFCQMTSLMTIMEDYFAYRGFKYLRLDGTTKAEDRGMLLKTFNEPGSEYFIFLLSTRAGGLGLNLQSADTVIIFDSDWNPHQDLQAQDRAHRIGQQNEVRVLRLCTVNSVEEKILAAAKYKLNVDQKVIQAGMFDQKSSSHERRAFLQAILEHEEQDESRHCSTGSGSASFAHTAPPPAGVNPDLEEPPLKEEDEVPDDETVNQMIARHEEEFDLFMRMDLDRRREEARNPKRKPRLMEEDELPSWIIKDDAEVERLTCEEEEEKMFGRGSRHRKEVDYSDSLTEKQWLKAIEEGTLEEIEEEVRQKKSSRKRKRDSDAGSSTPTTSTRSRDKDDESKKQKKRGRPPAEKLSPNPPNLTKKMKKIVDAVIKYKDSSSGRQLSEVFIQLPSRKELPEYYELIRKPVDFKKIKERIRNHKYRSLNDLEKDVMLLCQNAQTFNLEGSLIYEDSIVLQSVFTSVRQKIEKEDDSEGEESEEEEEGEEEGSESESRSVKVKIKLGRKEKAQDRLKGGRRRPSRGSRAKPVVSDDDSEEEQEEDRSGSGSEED
BRM, sequence (P51531 whole entry): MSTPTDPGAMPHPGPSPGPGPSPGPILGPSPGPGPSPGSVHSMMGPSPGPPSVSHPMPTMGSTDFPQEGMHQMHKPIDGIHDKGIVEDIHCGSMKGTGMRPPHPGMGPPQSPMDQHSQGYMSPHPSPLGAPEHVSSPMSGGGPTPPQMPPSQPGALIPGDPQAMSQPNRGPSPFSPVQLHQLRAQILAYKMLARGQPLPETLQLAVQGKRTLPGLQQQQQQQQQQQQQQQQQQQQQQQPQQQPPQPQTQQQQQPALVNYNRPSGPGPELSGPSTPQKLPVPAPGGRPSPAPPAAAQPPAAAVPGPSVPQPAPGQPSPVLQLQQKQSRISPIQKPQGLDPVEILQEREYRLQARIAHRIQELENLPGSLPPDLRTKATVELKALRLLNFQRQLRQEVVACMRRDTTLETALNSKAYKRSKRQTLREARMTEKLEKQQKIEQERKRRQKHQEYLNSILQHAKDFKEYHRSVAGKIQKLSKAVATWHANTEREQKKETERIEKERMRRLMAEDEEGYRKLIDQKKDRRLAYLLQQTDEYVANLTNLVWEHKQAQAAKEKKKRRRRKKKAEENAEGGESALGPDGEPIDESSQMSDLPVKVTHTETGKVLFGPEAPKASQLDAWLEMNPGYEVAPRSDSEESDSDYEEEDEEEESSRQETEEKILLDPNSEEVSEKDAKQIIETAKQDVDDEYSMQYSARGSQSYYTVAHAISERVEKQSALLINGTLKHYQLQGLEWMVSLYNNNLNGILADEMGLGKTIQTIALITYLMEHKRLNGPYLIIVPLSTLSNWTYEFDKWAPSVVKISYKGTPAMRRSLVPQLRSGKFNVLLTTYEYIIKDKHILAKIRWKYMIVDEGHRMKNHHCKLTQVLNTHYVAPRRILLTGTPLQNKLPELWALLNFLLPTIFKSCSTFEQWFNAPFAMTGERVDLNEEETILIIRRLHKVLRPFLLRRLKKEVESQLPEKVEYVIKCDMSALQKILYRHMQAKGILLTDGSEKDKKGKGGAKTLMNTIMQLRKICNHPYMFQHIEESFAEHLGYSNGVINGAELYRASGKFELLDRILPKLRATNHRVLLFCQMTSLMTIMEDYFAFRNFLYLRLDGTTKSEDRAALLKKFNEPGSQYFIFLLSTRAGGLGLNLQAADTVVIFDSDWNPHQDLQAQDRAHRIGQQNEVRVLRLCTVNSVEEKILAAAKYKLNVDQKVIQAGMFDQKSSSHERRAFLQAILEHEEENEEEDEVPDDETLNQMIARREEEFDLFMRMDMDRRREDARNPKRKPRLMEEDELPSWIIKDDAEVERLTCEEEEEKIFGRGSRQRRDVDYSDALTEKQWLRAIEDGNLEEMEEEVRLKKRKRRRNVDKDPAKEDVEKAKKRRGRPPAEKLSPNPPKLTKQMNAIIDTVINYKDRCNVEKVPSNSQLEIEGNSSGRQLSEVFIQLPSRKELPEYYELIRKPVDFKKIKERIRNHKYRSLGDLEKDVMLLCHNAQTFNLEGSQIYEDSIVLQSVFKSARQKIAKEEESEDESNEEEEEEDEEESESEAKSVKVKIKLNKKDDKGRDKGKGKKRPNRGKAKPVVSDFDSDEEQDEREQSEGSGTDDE

Row | Compound | DC50 (BRG1) [nM] | DC50 (BRM) [nM] | BRM IF Degradation Sinf (%) (BRM) | Dmax (BRG1) [%]
1 | Nc1nnc(-c2ccccc2O)cc1N1CC2CCC(C1)N2c1ccnc(C#CCN2CCn3cncc3C2)c1 [Compound 72, 2-[6-amino-5-[8-[2-[3-(6,8-dihydro-5H-imidazo[1,5-a]pyrazin-7-yl)prop-1-ynyl]-4-pyridyl]-3,8-diazabicyclo[3.2.1]octan-3-yl]pyridazin-3-yl]phenol] | > 100 | 10 to 100 | E (E indicates −30%-−70%) | –
2 | CNC(=O)C12CC(CN1CC#Cc1cc(N3C4CCC3CN(c3cc(-c5ccccc5O)nnc3N)C4)ccn1)C2 [Compound 148, 2-[3-[4-[3-[3-amino-6-(2-hydroxyphenyl)pyridazin-4-yl]-3,8-diazabicyclo[3.2.1]octan-8-yl]-2-pyridyl]prop-2-ynyl]-N-methyl-2-azabicyclo[2.1.1]hexane-1-carboxamide] | > 100 | 10 to 100 | E (E indicates −30%-−70%) | 30 to 70
3 | CC1CN(CC#Cc2cc(N3C4CCC3CN(c3cc(-c5ccccc5O)nnc3N)C4)ccn2)C1 [Compound 172, 2-[6-amino-5-[8-[2-[3-(3-methylazetidin-1-yl)prop-1-ynyl]-4-pyridyl]-3,8-diazabicyclo[3.2.1]octan-3-yl]pyridazin-3-yl]phenol] | 10 to 100 | < 10 | E (E indicates −30%-−70%) | 71 to 120
4 | Nc1nnc(-c2ccccc2O)cc1N1CC2CCC(C1)N2c1ccnc(C#CCN2CCOC3(CCC3)C2)c1 [Compound 77] | > 100 | 10 to 100 | E (E indicates −30%-−70%) | –
5 | CN1C[C@@H]2CN(CC#Cc3cc(N4C5CCC4CN(c4cc(-c6ccccc6O)nnc4N)C5)ccn3)C[C@@H]2C1 [Compound 108, 2-[5-[8-[2-[3-[(3aS,6aR)-2-methyl-1,3,3a,4,6,6a-hexahydropyrrolo[3,4-c]pyrrol-5-yl]prop-1-ynyl]-4-pyridyl]-3,8-diazabicyclo[3.2.1]octan-3-yl]-6-amino-pyridazin-3-yl]phenol] | > 100 | > 100 | E (E indicates −30%-−70%) | –
6 | Nc1nnc(-c2ccccc2O)cc1N1CC2(CN(c3ccnc(C#CCN4CCCCCC4)c3)C2)C1 [Compound 251, 2-[6-amino-5-[6-[2-[3-(azepan-1-yl)prop-1-ynyl]-4-pyridyl]-2,6-diazaspiro[3.3]heptan-2-yl]pyridazin-3-yl]phenol] | 10 to 100 | < 10 | E (E indicates −30%-−70%) | 30 to 70
7 | Oc1ccccc1-c1cc2c(nn1)NC[C@H]1CN(c3ccnc(C#CCN4CCCCCC4)c3)CCN21 (single isomer, unassigned) [Compound 252] | < 10 | < 10 | F (F indicates −71%-−120%) | 71 to 120
8 | CS(=O)(=O)C1CN(CC#Cc2cc(N3C4CCC3CN(c3cc(-c5ccccc5O)nnc3N)C4)ccn2)C1 [Compound 227, 2-[6-amino-5-[8-[2-[3-(3-methylsulfonylazetidin-1-yl)prop-1-ynyl]-4-pyridyl]-3,8-diazabicyclo[3.2.1]octan-3-yl]pyridazin-3-yl]phenol] | > 100 | > 100 | E (E indicates −30%-−70%) | –
9 | CC1(O)CCCCN(CC#Cc2cc(N3C4CCC3CN(c3cc(-c5ccccc5O)nnc3N)C4)ccn2)C1 (centres unmarked) [Compound 240, 1-[3-[4-[3-[3-amino-6-(2-hydroxyphenyl)pyridazin-4-yl]-3,8-diazabicyclo[3.2.1]octan-8-yl]-2-pyridyl]prop-2-ynyl]-3-methyl-azepan-3-ol] | 10 to 100 | 10 to 100 | F (F indicates −71%-−120%) | 30 to 70
10 | Nc1nnc(-c2ccccc2O)cc1N1CC2CCC(C1)N2c1cc(C#CCN2CCCCCC2)ncn1 [Compound 247, 2-(6-amino-5-(8-(6-(3-(azepan-1-yl)prop-1-yn-1-yl)pyrimidin-4-yl)-3,8-diazabicyclo[3.2.1]octan-3-yl)pyridazin-3-yl)phenol] | < 10 | < 10 | F (F indicates −71%-−120%) | 71 to 120
11 | Nc1nnc(-c2ccccc2O)cc1N1CC2CCC(C1)N2c1ccnc(C#CCN2CCCC(F)(F)C(F)C2)c1 (centres unmarked) [Compound 199, 2-[6-amino-5-[8-[2-[3-(3,4,4-trifluoroazepan-1-yl)prop-1-ynyl]-4-pyridyl]-3,8-diazabicyclo[3.2.1]octan-3-yl]pyridazin-3-yl]phenol] | 10 to 100 | < 10 | F (F indicates −71%-−120%) | 30 to 70
12 | Nc1nnc(-c2ccccc2O)cc1N1CC2CCC(C1)N2c1ccnc(C#CCN2CCC23CCOCC3)c1 [Compound 159, 2-[6-amino-5-[8-[2-[3-(7-oxa-1-azaspiro[3.5]nonan-1-yl)prop-1-ynyl]-4-pyridyl]-3,8-diazabicyclo[3.2.1]octan-3-yl]pyridazin-3-yl]phenol] | < 10 | < 10 | E (E indicates −30%-−70%) | 30 to 70
13 | CN1CCOC2(C1)CN(CC#Cc1cc(N3C4CCC3CN(c3cc(-c5ccccc5O)nnc3N)C4)ccn1)C2 [Compound 188, 2-[6-amino-5-[8-[2-[3-(8-methyl-5-oxa-2,8-diazaspiro[3.5]nonan-2-yl)prop-1-ynyl]-4-pyridyl]-3,8-diazabicyclo[3.2.1]octan-3-yl]pyridazin-3-yl]phenol] | > 100 | > 100 | E (E indicates −30%-−70%) | –
14 | CC1(C)CN(CC#Cc2cc(N3C4CCC3CN(c3cc(-c5ccccc5O)nnc3N)C4)ccn2)CCO1 [Compound 119, 2-[6-amino-5-[8-[2-[3-(2,2-dimethylmorpholin-4-yl)prop-1-ynyl]-4-pyridyl]-3,8-diazabicyclo[3.2.1]octan-3-yl]pyridazin-3-yl]phenol] | > 100 | > 100 | E (E indicates −30%-−70%) | –
15 | COC1(C)CN(CC#Cc2cc(N3C4CCC3CN(c3cc(-c5ccccc5O)nnc3N)C4)ccn2)C1 [Compound 169, 2-[6-amino-5-[8-[2-[3-(3-methoxy-3-methyl-azetidin-1-yl)prop-1-ynyl]-4-pyridyl]-3,8-diazabicyclo[3.2.1]octan-3-yl]pyridazin-3-yl]phenol] | 10 to 100 | < 10 | E (E indicates −30%-−70%) | 30 to 70
16 | Nc1nnc(-c2ccccc2O)cc1N1CC2CCC(C1)N2c1ccnc(C#CCN2CCC23CCCOC3)c1 (centres unmarked) [Compound 100, 2-[6-amino-5-[8-[2-[3-(8-oxa-1-azaspiro[3.5]nonan-1-yl)prop-1-ynyl]-4-pyridyl]-3,8-diazabicyclo[3.2.1]octan-3-yl]pyridazin-3-yl]phenol] | < 10 | < 10 | E (E indicates −30%-−70%) | 30 to 70
17 | Nc1nnc(-c2ccccc2O)cc1N1CC2CCC(C1)N2c1ccnc(C#CCN2C3CCC2(CO)CC3)c1 [Compound 121, 2-[6-amino-5-[8-[2-[3-[1-(hydroxymethyl)-7-azabicyclo[2.2.1]heptan-7-yl]prop-1-ynyl]-4-pyridyl]-3,8-diazabicyclo[3.2.1]octan-3-yl]pyridazin-3-yl]phenol] | > 100 | < 10 | E (E indicates −30%-−70%) | 30 to 70
18 | CCOC1CN(CC#Cc2cc(N3C4CCC3CN(c3cc(-c5ccccc5O)nnc3N)C4)ccn2)C1 [Compound 224, 2-[6-amino-5-[8-[2-[3-(3-ethoxyazetidin-1-yl)prop-1-ynyl]-4-pyridyl]-3,8-diazabicyclo[3.2.1]octan-3-yl]pyridazin-3-yl]phenol] | < 10 | < 10 | E (E indicates −30%-−70%) | 30 to 70
19 | Nc1nnc(-c2ccccc2O)cc1N1CC2CCC(C1)N2c1ccnc(C#CCN2CCCC(C(F)(F)F)CC2)c1 (centres unmarked) [Compound 209, 2-[6-amino-5-[8-[2-[3-[4-(trifluoromethyl)azepan-1-yl]prop-1-ynyl]-4-pyridyl]-3,8-diazabicyclo[3.2.1]octan-3-yl]pyridazin-3-yl]phenol] | < 10 | < 10 | F (F indicates −71%-−120%) | 30 to 70
20 | Nc1nnc(-c2ccccc2O)cc1N1CC2CCC(C1)N2c1ccnc(C#CCN2CC[C@@]3(O)C[C@H]3C2)c1 [Compound 117, (1S,6S)-3-[3-[4-[3-[3-amino-6-(2-hydroxyphenyl)pyridazin-4-yl]-3,8-diazabicyclo[3.2.1]octan-8-yl]-2-pyridyl]prop-2-ynyl]-3-azabicyclo[4.1.0]heptan-6-ol] | 10 to 100 | 10 to 100 | E (E indicates −30%-−70%) | 0 to 30
21 | Nc1nnc(-c2ccccc2O)cc1N1CC2CCC(C1)N2c1ccnc(C#CCN2CCC3(C2)CC3(F)F)c1 (centres unmarked) [Compound 84, 2-[6-amino-5-[8-[2-[3-(2,2-difluoro-5-azaspiro[2.4]heptan-5-yl)prop-1-ynyl]-4-pyridyl]-3,8-diazabicyclo[3.2.1]octan-3-yl]pyridazin-3-yl]phenol] | > 100 | < 10 | E (E indicates −30%-−70%) | –
